Reference: patent US10662184B2, “Benzenesulfonamide compounds and their use as therapeutic agents” (Xenon Pharmaceuticals Inc., priority 2016, dated 2020)
Where two headings read alike, the source gives them in different places.

Legend:
human NaV1.6 = human NaV1.6 (Homo sapiens (Human), UniProt Q9UQD0); assay: Sodium Influx Assay (Flux), NaV1.6
human NaV1.5 = human NaV1.5 (Homo sapiens (Human), UniProt Q14524); assay: cell-based
human NaV1.1 = human NaV1.1 (Homo sapiens (Human), UniProt P35498); assay: Sodium Influx Assay (Flux), NaV1.1; assay type: cell-based; details: Trex HEK293 cells, ANG2 dye; arithmetic mean
human NaV1.6 (SCN8A) = human NaV1.6 (SCN8A) (Homo sapiens (Human), UniProt Q9UQD0); assay: Electrophysiological Assay (EP, patch voltage clamp), NaV1.6; assay type: cell-based; details: HEK-293 cells, whole-cell patch clamp, inactivated state; arithmetic mean
Excerpt: Patch voltage clamp electrophysiology allows for the direct measurement and quantification of block of voltage-gated sodium channels (Nav's), and allows the determination of the time- and voltage-dependence of block which has been interpreted as differential binding to the resting, open, and inactivated states of the sodium channel (Hille, B., Journal of General Physiology (1977), 69: 497-515).
Nav1.1, Nav1.5 and Nav1.6 cDNAs (NM_001165964 (SCN1A), NM_000335 (SCN5A) and NM_014191 (SCN8A), respectively) were stably expressed in HEK-293 cells.
Sodium currents were measured using the patch clamp technique in the whole-cell configuration using either a PatchXpress automated voltage clamp or manually using an Axopatch 200B (Axon Instruments) or Model 2400 (A-M systems) amplifier. […] Control sodium currents were measured in 0.5% DMSO. […]
Currents were recorded at 40 kHz sampling frequency, filtered at […], and stored using a Digidata-1322A analogue/digital interface with the pClamp software (Axon Instruments). […]
The membrane potential was maintained at a voltage where inactivation of the channel is complete. The voltage is then stepped back to a very negative (Vhold=−150 mV) voltage for 20 ms and then a test pulse is applied to quantify the compound block. […]

human NaV1.1 (SCN1A) = human NaV1.1 (SCN1A) (Homo sapiens (Human), UniProt P35498); assay: Electrophysiological Assay (EP, patch voltage clamp), NaV1.1; assay type: cell-based; details: HEK-293 cells, whole-cell patch clamp, inactivated state; arithmetic mean
Procedure: Sodium currents were measured using the patch clamp technique in the whole-cell configuration using either a PatchXpress automated voltage clamp or manually using an Axopatch 200B (Axon Instruments) or Model 2400 (A-M systems) amplifier. […] In some studies, the external sodium was reduced by equimolar replacement with choline. […] All recordings were performed at ambient temperature in a bath chamber with a volume of 150 μL. Control sodium currents were measured in 0.5% DMSO. Controls and representative compounds of the invention were applied to the recording chamber through a 4-pinch or 8-pinch valve bath perfusion system manufactured by ALA Scientific Instruments.
Series resistance compensation was applied (60-80%). […] All statistics in this study are given as mean±SD.
The membrane potential was maintained at a voltage where inactivation of the channel is complete. The voltage is then stepped back to a very negative (Vhold=−150 mV) voltage for 20 ms and then a test pulse is applied to quantify the compound block. […] The percent decrease in sodium current following wash-on of compound was taken as the percent block of sodium channels.

[1] = read-out: Flux NaV1.6 IC50, Trex HEK293 cells, ANG2 dye, arithmetic mean

Chain of human NaV1.5 (Q14524 other isoform, or with tags, fused parts or gaps): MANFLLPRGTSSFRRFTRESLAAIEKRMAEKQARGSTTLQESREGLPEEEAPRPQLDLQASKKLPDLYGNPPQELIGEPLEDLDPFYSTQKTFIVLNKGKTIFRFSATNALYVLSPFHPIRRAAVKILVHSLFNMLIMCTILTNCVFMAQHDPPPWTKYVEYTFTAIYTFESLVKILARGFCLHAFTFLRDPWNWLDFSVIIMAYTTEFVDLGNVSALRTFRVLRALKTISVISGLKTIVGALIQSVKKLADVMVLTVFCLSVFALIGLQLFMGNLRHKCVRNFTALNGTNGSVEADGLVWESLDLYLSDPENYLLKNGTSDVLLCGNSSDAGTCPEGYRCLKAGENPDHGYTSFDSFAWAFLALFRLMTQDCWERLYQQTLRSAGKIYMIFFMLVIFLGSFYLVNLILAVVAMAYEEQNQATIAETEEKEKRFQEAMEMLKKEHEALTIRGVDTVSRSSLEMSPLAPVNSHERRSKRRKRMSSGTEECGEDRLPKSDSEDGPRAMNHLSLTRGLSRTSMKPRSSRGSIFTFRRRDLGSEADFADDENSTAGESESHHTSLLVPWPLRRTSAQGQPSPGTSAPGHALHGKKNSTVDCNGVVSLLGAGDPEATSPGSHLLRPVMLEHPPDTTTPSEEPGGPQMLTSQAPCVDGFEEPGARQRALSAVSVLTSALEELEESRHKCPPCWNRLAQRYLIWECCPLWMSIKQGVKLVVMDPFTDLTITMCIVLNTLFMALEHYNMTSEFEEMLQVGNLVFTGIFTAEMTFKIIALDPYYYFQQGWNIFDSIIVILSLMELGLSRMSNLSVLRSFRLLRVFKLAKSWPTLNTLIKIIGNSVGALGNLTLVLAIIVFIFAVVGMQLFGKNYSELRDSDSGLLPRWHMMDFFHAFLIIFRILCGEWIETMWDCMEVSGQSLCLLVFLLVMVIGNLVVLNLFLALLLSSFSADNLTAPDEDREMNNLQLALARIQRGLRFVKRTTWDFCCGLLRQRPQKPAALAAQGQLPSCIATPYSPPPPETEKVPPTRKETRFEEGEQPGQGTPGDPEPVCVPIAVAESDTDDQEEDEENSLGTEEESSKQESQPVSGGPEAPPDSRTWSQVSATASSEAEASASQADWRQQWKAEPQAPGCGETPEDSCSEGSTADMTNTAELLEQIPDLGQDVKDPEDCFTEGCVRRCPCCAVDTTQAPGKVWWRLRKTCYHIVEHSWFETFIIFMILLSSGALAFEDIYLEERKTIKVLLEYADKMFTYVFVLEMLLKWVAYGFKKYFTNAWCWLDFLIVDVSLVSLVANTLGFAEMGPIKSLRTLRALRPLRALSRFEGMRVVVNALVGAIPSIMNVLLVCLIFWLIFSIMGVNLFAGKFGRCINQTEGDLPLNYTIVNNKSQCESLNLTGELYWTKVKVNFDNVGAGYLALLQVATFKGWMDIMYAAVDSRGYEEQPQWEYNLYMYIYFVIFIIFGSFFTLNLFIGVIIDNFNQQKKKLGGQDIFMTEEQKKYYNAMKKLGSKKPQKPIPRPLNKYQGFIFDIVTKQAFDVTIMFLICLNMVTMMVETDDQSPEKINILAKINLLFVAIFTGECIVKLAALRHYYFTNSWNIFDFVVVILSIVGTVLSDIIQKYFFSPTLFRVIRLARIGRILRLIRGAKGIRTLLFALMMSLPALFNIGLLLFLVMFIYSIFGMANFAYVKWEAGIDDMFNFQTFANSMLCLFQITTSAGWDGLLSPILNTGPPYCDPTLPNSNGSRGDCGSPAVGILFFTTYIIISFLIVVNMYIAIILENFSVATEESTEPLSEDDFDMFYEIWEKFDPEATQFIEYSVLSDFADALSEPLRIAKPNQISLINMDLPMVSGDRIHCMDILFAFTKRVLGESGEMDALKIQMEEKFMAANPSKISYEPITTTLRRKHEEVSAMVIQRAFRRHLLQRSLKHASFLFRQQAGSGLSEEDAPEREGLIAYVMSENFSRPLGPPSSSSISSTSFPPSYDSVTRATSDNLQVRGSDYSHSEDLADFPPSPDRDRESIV
Chain of human NaV1.6 (SCN8A) (Q9UQD0 whole entry): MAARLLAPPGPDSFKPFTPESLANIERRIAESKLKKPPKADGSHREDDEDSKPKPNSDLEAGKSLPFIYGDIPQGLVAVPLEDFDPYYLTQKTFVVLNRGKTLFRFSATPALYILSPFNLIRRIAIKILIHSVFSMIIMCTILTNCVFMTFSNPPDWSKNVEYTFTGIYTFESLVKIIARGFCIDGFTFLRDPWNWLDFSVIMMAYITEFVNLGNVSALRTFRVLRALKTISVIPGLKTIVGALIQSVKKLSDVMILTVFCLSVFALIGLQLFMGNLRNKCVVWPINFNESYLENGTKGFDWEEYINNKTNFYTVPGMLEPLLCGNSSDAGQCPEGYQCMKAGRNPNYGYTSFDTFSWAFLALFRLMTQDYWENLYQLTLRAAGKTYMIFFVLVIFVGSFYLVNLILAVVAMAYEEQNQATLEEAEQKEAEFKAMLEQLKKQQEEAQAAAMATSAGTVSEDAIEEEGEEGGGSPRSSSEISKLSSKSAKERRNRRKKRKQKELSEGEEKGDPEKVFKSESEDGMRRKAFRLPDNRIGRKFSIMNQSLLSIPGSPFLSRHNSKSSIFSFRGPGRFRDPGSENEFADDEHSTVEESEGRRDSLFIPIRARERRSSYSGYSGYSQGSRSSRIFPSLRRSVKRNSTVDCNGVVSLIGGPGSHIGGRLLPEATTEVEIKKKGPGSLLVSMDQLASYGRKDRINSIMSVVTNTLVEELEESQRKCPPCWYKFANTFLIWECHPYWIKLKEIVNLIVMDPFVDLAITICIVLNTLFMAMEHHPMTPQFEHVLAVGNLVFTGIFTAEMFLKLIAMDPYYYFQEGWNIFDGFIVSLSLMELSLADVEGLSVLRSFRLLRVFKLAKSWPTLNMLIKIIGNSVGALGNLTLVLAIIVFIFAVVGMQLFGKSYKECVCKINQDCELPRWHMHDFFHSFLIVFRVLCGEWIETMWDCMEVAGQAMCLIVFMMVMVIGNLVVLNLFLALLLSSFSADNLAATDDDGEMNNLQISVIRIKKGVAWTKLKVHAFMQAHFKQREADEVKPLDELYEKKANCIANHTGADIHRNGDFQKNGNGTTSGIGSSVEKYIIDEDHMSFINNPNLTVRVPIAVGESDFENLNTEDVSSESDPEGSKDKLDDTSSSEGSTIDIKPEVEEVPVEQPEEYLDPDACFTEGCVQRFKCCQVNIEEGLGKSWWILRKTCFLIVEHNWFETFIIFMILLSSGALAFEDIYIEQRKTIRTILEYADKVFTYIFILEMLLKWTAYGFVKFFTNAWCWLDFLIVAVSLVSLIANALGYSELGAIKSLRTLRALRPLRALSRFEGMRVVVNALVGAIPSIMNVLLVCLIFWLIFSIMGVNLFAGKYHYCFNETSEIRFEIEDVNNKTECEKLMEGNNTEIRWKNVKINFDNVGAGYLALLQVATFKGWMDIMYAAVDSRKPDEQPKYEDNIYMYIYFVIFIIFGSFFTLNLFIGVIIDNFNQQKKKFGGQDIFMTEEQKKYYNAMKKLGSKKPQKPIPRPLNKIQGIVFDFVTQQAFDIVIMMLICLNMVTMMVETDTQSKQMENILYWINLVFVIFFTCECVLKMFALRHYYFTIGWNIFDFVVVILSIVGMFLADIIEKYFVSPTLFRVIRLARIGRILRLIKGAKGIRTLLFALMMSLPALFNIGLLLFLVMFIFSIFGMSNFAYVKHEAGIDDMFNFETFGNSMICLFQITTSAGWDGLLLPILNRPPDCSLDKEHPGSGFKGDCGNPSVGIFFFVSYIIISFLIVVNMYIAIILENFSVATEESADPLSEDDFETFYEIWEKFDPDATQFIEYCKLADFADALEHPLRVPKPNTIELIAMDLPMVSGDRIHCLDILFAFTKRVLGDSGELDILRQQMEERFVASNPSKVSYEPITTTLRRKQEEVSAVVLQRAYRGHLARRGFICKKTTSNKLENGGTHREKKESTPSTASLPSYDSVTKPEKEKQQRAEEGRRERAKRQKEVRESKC

Row | SMILES | IC50 (human NaV1.6) | IC50 (human NaV1.5) | IC50 (human NaV1.1) | IC50 (human NaV1.6; [1]) | IC50 (human NaV1.6 (SCN8A)) | IC50 (human NaV1.1 (SCN1A))
1 | C[C@H]1C[C@@H](Oc2ccc(S(=O)(=O)Nc3nccs3)cc2Cl)CCN1Cc1ccccc1 (relative stereo) [Example 72, 4-((cis-1-benzyl-2-methylpiperidin-4-yl)oxy)-3-chloro-N-(thiazol-2-yl)benzenesulfonamide] | 6.07 µM | 13.5 µM | 6.81 µM |  |  | 
2 | C[C@@H]1C[C@@H](Oc2ccc(S(=O)(=O)Nc3nccs3)cc2Cl)CCN1Cc1ccccc1 (relative stereo) [Example 73, 4-((trans-1-benzyl-2-methylpiperidin-4-yl)oxy)-3-chloro-N-(thiazol-2-yl)benzenesulfonamide] | 1.88 µM | 13.1 µM | 5.85 µM |  |  | 
3 | C[C@@H]1CN(Cc2ccccc2)C[C@@H]1Nc1ccc(S(=O)(=O)Nc2nccs2)cc1Cl (relative stereo) [Example 75, 4-((cis-1-benzyl-4-methylpyrrolidin-3-yl)amino)-3-chloro-N-(thiazol-2-yl)benzenesulfonamide] | 0.661 µM | 8.99 µM | 4.19 µM |  |  | 
4 | C[C@@H]1[C@H](N(C)c2cc(F)c(S(=O)(=O)Nc3cscn3)cc2Cl)CCN1Cc1ccccc1 (racemic) [Example 309, rac-4-(((2R,3R)-1-benzyl-2-methylpyrrolidin-3-yl)(methyl)amino)-5-chloro-2-fluoro-N-(thiazol-4-yl)benzenesulfonamide] |  |  | 8.44 µM | 6.86 µM |  | 
5 | C[C@H]1CN(Cc2ccccc2)C[C@@H]1Nc1ccc(S(=O)(=O)Nc2nccs2)cc1Cl (relative stereo) [Example 74, 4-((trans-1-benzyl-4-methylpyrrolidin-3-yl)amino)-3-chloro-N-(thiazol-2-yl)benzenesulfonamide] | 0.167 µM | 8.67 µM | 1.54 µM |  | 0.025 µM | 1.03 µM
6 | O=S(=O)(Nc1cscn1)c1ccc(O[C@@H]2C[C@H]3CC[C@@H](C2)N3Cc2cccc(C(F)F)c2)c(Cl)c1 [Example 256, 3-chloro-4-(((1R,3s,5S)-8-(3-(difluoromethyl)benzyl)-8-azabicyclo[3.2.1]octan-3-yl)oxy)-N-(thiazol-4-yl)benzenesulfonamide] |  |  | 4.41 µM | 3.31 µM |  | 
7 | Cc1cccc(CN2CC[C@H](Oc3ccc(S(=O)(=O)Nc4nccs4)cc3Cl)[C@H](C)C2)c1 (relative stereo) [Example 9A, 3-chloro-4-((cis-3-methyl-1-(3-methylbenzyl)piperidin-4-yl)oxy)-N-(thiazol-2-yl)benzenesulfonamide] | 1.75 µM |  |  |  |  | 
8 | C[C@@H](c1ccccc1)N1CC[C@H](N(C)c2cc(F)c(S(=O)(=O)Nc3cccc(F)n3)cc2Cl)C1 [Example 43, 2,2,2-trifluoroacetate] | 1.89 µM | 17.1 µM | 7.87 µM |  |  | 
9 | Cc1cccc(CN2CC[C@@H](Oc3ccc(S(=O)(=O)Nc4nccs4)cc3Cl)[C@H](C)C2)c1 (relative stereo) [Example 9B, 3-chloro-4-((trans-3-methyl-1-(3-methylbenzyl)piperidin-4-yl)oxy)-N-(thiazol-2-yl)benzenesulfonamide] | 0.874 µM | 8.75 µM |  |  |  | 
